Experimental data published in patent publication US20070203121A1, “SUBSTITUTED INDOLE COMPOUNDS, THEIR PREPARATION AND USE IN MEDICAMENTS” (LABORATORIOS DEL DR. ESTEVE S.A, priority 2004, published 2007).

Target: T1, 5HT6-human recombinant receptor (Homo sapiens, UniProt P50406)
T1 construct: purchased Receptor Biology; host or cells: HEK-293 cells (membranes)
Assay: Binding to Serotonin Receptor 5-HT6 ([3H]-LSD displacement)
Settings: membranes of HEK-293 cells expressing the receptor; radioligand [3H]-LSD 2.7 nM; 60 minutes at 37° C.; triplicate
Protocol: I) Binding to Serotonin Receptor 5-HT6
Cell membranes of HEK-293 cells expressing the 5HT6-human recombinant receptor were supplied by Receptor Biology. In said membranes the receptor concentration is 2.18 pmol/mg protein and the protein concentration is 9.17 mg/ml. The experimental protocol follows the method of B. L. Roth et al. [B. L. Roth, S. C. Craigo, M. S. Choudhary, A. Uluer, F. J. Monsma, Y. Shen, H. Y. Meltzer, D. R. Sibley: Binding of Typical and Atypical Antipsychotic Agents to 5-Hydroxytryptamine-6 and Hydroxytryptamine-7 Receptors. The Journal of Pharmacology and Experimental Therapeutics, 1994, 268, 1403] with the following slight changes. The respective part of the literature description is hereby incorporated by reference and forms part of the disclosure.
The commercial membrane is diluted (1:40 dilution) with the binding buffer: 50 mM Tris-HCl, 10 mM MgCl2, 0.5 mM EDTA (pH 7.4). The radioligand used is [^3H]-LSD at a concentration of 2.7 nM with a final volume of 200 μl. Incubation is initiated by adding 100 μl of membrane suspension, (≈22.9 μg membrane protein), and is prolonged for 60 minutes at a temperature of 37° C. The incubation is ended by fast filtration in a Brandel Cell Harvester through fiber glass filters made by Schleicher & Schuell GF 3362 pretreated with a solution of polyethylenimine at 0.5%. The filters are washed three times with three milliliters of buffer Tris-HCl 50 mM pH 7.4. The filters are transferred to flasks and 5 ml of Ecoscint H liquid scintillation cocktail are added to each flask. The flasks are allowed to reach equilibrium for several hours before counting with a Wallac Winspectral 1414 scintillation counter. Non-specific binding is determined in the presence of 100 μM of serotonin. Tests were made in triplicate. The inhibition constants (Ki, nM) were calculated by non-linear regression analysis using the program EBDA/LIGAND described in Munson and Rodbard, Analytical Biochemistry, 1980, 107, 220, the respective part of which is hereby incorporated by reference and forms part of the disclosure.
The binding of the substituted indole compounds to the 5-HT6 receptor was determined as described above.

T1 sequence (P50406 whole entry): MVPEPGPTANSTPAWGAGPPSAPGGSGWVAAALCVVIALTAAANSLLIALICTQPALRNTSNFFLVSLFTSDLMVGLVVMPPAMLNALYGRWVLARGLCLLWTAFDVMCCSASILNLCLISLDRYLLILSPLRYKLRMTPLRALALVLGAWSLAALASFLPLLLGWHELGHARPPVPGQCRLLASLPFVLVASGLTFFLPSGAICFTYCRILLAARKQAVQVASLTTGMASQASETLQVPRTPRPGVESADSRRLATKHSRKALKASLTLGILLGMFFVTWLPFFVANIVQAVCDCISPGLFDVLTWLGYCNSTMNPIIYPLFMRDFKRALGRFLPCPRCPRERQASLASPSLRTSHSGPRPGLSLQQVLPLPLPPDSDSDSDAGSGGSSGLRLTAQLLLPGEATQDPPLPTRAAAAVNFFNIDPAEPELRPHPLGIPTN

| SMILES | Ki |
| --- | --- |
| CCN(CC)C(=O)C(=O)c1c[nH]c2ccc(NS(=O)(=O)c3c(Cl)nc4sccn34)cc12 [Example 9, 2-[5-(6-Chloro-imidazo[2,1-b]thiazole-5-sulfonylamino)-1H-indol-3-yl]-N,N-diethyl-2-oxo-acetamide] | 0.224 µM |
| CN(C)C(=O)C(=O)c1c[nH]c2ccc(NS(=O)(=O)c3c(Cl)nc4sccn34)cc12 [Example 10, 2-[5-(6-Chloro-imidazo[2,1-b]thiazole-5-sulfonylamino)-1H-indol-3-yl]-N,N-dimethyl-2-oxo-acetamide] | 0.0184 µM |
| CN(C)C(=O)C(=O)c1c[nH]c2cccc(NS(=O)(=O)c3c(Cl)nc4sccn34)c12 [Example 13, 2-[4-(6-Chloro-imidazo[2,1-b]thiazole-5-sulfonylamino)-1H-indol-3-yl]-N,N-dimethyl-2-oxo-acetamide] | 0.161 µM |
| CN(C)C(=O)C(=O)c1c[nH]c2ccc(NS(=O)(=O)c3ccc(Oc4ccccc4)cc3)cc12 [Example 20, N,N-Dimethyl-2-[5-[(4-phenoxy-phenyl)-1-sulfonylamino]-1H-indol-3-yl]-2-oxo-acetamide] | 0.113 µM |
| Cc1[nH]c2ccc(NS(=O)(=O)c3c(Cl)nc4sccn34)cc2c1C(=O)C(=O)N(C)C [Example 22, 2-(5-(6-chloroimidazo[2,1-b]thiazole-5-sulfonamido)-2-methyl-1H-indol-3-yl)-N,N-dimethyl-2-oxoacetamide] | 0.0528 µM |
